The values that follow come from ChEMBL document CHEMBL5143512, “Synthesis and in vitro antitrypanosomal evaluation of novel 6-heteroarylidene-substituted quinolone derivatives” (Eur J Med Chem, 2022).

As usually defined, the CC50 is the concentration that lowers cell viability or growth by half. In general, IC50 refers to the concentration at which inhibition is half-maximal.

A value given as a limit tells only on which side of the number the result lay.

A short description of data set [1]: Cytotoxicity against human hTERT-BJ cells assessed as cell viability at 10 uM incubated for 48 hrs by MTT based colorimetric assay. It is filed as toxicity. The following applies: read-out: Activity. In general terms: Formazan colour is commonly taken as a measure of viable cells.
The nature of data set [2]: Cytotoxicity against African green monkey Vero cells assessed as cell viability at 1 uM incubated for 48 hrs by MTT based colorimetric assay. The format is toxicity. The note with it: chlorocebus sabaeus, read-out: Activity.
A short description of data set [3]: Cytotoxicity against human hTERT-BJ cells assessed as cell viability at 1 uM incubated for 48 hrs by MTT based colorimetric assay. It is filed as toxicity. The note with it: read-out: Activity.
A short description of data set [4]: Cytotoxicity against African green monkey Vero cells assessed as reduction in cell viability incubated for 48 hrs by MTT based colorimetric assay. The format is toxicity. The note with it: chlorocebus sabaeus.
A short description of data set [5]: Cytotoxicity against African green monkey Vero cells assessed as cell viability at 10 uM incubated for 48 hrs by MTT based colorimetric assay. It is filed as toxicity. The following applies: chlorocebus sabaeus, read-out: Activity.
Data set [6] can be described thus: Cytotoxicity against African green monkey Vero cells assessed as cell viability at 5 uM incubated for 48 hrs by MTT based colorimetric assay. The note with it: chlorocebus sabaeus, read-out: Activity. The format is toxicity.
Another data set concerns hTERT-BJ. The experiment in a line: Cytotoxicity against human hTERT-BJ cells assessed as reduction in cell viability at 10 uM incubated for 48 hrs by MTT based colorimetric assay. It is filed as toxicity.
Data set [7] deals with Trypanosoma brucei brucei. The experiment in a line: Antitrypanosomal activity against Trypanosoma brucei brucei 427 trypomastigotes assessed as reduction in parasite growth incubated for 48 hrs by resazurin dye based fluorescence assay. It is filed as functional, organism-based. The note with it: Trypanosoma brucei, 427, 48 h. (The colour change of resazurin is a common sign of viable cells or microbes.)

Data set [8] in a line: Cytotoxicity against human hTERT-BJ cells assessed as cell viability at 5 uM incubated for 48 hrs by MTT based colorimetric assay. The format is toxicity. The following applies: read-out: Activity.
The nature of data set [9]: Selectivity index, ratio of CC50 for African green monkey Vero cells to IC50 for Antitrypanosomal activity against Trypanosoma brucei brucei 427 trypomastigotes. The format is toxicity. The following applies: read-out: Ratio CC50/IC50.

Take `Cc1ccc(Cn2cc(C(=O)NCCOCCO)c(=O)c3cc(C(=O)/C=C/c4ccc([N+](=O)[O-])o4)ccc32)cc1`: the viability at 48 h, 10 µM in data set [1] is 66%; in data set [5], 6%. Moreover, the results for the viability at 48 h, 1 µM in data set [2] and in data set [3] were 105% and 118%, respectively. The 50% cytotoxic concentration (CC50) at 48 h in data set [4] amounted to 3400 nM. Besides, the viability at 48 h, 5 µM in data set [6] was 20%; in data set [8], 88%. Also, the Activity in the data set on hTERT-BJ is on record as less than 25%. The IC50 in data set [7] was determined as 80 nM. Further, the selectivity ratio in data set [9] stood at 42.5.

Turning to `CCOC(=O)c1cn(CCO)c2ccc(C(=O)/C=C/c3ccc([N+](=O)[O-])o3)cc2c1=O`, the concentration for half-maximal inhibition (IC50) in data set [7] turned out to be 2090 nM.

Take `CCOC(=O)c1cn(CC)c2ccc(C(=O)/C=C/c3ccc(Br)o3)cc2c1=O`: the half-inhibitory concentration (IC50) in data set [7] turned out to be 1310 nM.

Take `N=C(N)c1ccc(OCCCCCOc2ccc(C(=N)N)cc2)cc1` [PENTAMIDINE]: the IC50 in data set [7] was 10 nM.

Turning to `COCCNC(=O)c1cn(Cc2ccc(C)cc2)c2ccc(C(=O)/C=C/c3ccc([N+](=O)[O-])o3)cc2c1=O`, in [7], the 50% inhibitory concentration (IC50) was 120 nM.

On to `COCCNC(=O)c1cn(Cc2ccccc2)c2ccc(C(=O)/C=C/c3ccc([N+](=O)[O-])o3)cc2c1=O`, for which, in data set [7], the IC50 came out at 470 nM.

Turning to `CCOC(=O)c1cn(CC)c2ccc(C(=O)/C=C/c3ccc([N+](=O)[O-])o3)cc2c1=O`, in data set [7], the IC50 turned out to be 600 nM.

With `Cc1cccc(Cn2cc(C(=O)NCCN3CCNCC3)c(=O)c3cc(C(=O)/C=C/c4ccc([N+](=O)[O-])o4)ccc32)c1`, the IC50 in data set [7] is 2410 nM.

As for `COCCNC(=O)c1c[nH]c2ccc(C(=O)/C=C/c3ccc([N+](=O)[O-])o3)cc2c1=O`, the half-maximal inhibitory concentration (IC50) in data set [7] worked out at 3430 nM.

In the case of `CCOC(=O)c1cn(Cc2ccccc2)c2ccc(C(=O)/C=C/c3ccc([N+](=O)[O-])o3)cc2c1=O`, in data set [7], the IC50 stood at 500 nM.

`O=C1/C(=C/c2ccc([N+](=O)[O-])o2)CCc2ccccc21`: the half-maximal inhibitory concentration (IC50) in data set [7] came to 360 nM.

`CCOC(=O)c1cn(CC)c2ccc(C(=O)/C=C/c3ccc([N+](=O)[O-])s3)cc2c1=O`: the IC50 in data set [7] was 970 nM.

As for `CCOC(=O)c1cn(CC(N)=O)c2ccc(C(=O)/C=C/c3ccc([N+](=O)[O-])o3)cc2c1=O`, in data set [7], the IC50 turned out to be 15300 nM.

With `O=C(/C=C/c1ccc([N+](=O)[O-])o1)c1ccc2c(c1)c(=O)c(C(=O)NCCOCCO)cn2Cc1ccccc1`, the IC50 in data set [7] is 280 nM.

Turning to `CCOC(=O)c1cn(CCO)c2ccc(C(=O)/C=C/c3ccc([N+](=O)[O-])s3)cc2c1=O`, the half-inhibitory concentration (IC50) in [7] amounted to 380 nM.

For `O=C1/C(=C/c2ccc([N+](=O)[O-])o2)COc2ccccc21`, the IC50 in [7] came out at 510 nM.

Turning to `CC(=O)c1ccc2c(c1)c(=O)c(C(=O)NCCOCCO)cn2Cc1ccc(Br)cc1`, the concentration for half-maximal inhibition (IC50) in [7] is 7140 nM.
